The values that follow come from patent publication US20250375467A1, “SUSTAINED RELEASE SILICA HYDROGEL COMPOSITES FOR TREATING OPHTHALMOLOGICAL CONDITIONS AND METHODS OF USING SAME” (ASTELLAS US LLC, priority 2022, published 2025).

On the set-up of this series: species or system Dutch belted (DB) rabbit. Particulars: rabbit, in vivo. The protocol:
The composite formulation (using formulation #11 CSTR-3) prepared as described in Examples 2 and 3, whose in vitro release profile is shown in FIG. 8A and FIG. 8B, was evaluated for ACP release and tissue exposure following IVT administration in the Dutch belted (DB) rabbit. The study design includes bilateral intravitreal dosing of 1.0 mg oligo equivalent in a 50 μL dosing volume of silica composite PK formulation. Two rabbits (4 eyes) were collected at each of the following time points, day 1, 3, 7, 14, 28, 42, 56, and 84. Eyes were dissected, and vitreous humor, retina, and retinal pigment epithelium (RPE)/choroid were collected for tissue specific bioanalytical analysis employing a qualified dual-hybridization assay. The ocular PK (pharmacokinetics) is summarized in FIG. 9 for liquid formulation administered as an IVT bolus dose for vitreous humor and retina tissues as comparator to the sustained release depot PK formulation. The ocular tissue PK for the PK formulation is provided as solid lines for vitreous humor (top line), retina (middle line) and RPE/choroid (bottom line).
At study termination (day 84), the remaining PK formulation depot was recovered from the vitreous humor by centrifugation and analyzed for remaining silica by microwave plasma atomic emission spectroscopy (MP-AES) method and avacincaptad pegol content by a qualified HPLC assay method. […]

avacincaptad pegol [ACP] returned a terminal half-life of 91.2 h.
